The results in this text go back to patent US7074789B2, “Kinase inhibitors” (Amgen Inc., priority 1999, dated 2006).

What all share (format): biochemical
Assay [1] concerns the target T1, Lyn (Homo sapiens, UniProt P07948).
T1 construct: Kinases are expressed as either kinase domains or full length constructs; made in house
The assay can be described thus: Kinase inhibition assay (33P transfer), Lyn. The conditions noted are these: Table 6, Lyn-1 kinase inhibition class. The method, boiled down: (§1)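 GST/His-fusion kinases, E. coli or High Five expressed, affinity purified; 33P-ATP, plate-coated poly(Glu,Tyr) 4:1 or poly(Arg,Ser) 3:1; 0.5% H3PO4 wash, scintillant, LSC.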

Assay [2] concerns the target T2, Src (Homo sapiens, UniProt P12931).
T2 construct: Kinases are expressed as either kinase domains or full length constructs; made in house
The assay can be described thus: Kinase inhibition assay (33P transfer), Src. The conditions noted are these: Table 6, Src-1 kinase inhibition class. The method, boiled down:
as §1

Assay [3] has as its target T3, Zap-70 (Homo sapiens, UniProt P43403).
T3 construct: Kinases are expressed as either kinase domains or full length constructs; made in house
T3 sequence (P43403 1-619): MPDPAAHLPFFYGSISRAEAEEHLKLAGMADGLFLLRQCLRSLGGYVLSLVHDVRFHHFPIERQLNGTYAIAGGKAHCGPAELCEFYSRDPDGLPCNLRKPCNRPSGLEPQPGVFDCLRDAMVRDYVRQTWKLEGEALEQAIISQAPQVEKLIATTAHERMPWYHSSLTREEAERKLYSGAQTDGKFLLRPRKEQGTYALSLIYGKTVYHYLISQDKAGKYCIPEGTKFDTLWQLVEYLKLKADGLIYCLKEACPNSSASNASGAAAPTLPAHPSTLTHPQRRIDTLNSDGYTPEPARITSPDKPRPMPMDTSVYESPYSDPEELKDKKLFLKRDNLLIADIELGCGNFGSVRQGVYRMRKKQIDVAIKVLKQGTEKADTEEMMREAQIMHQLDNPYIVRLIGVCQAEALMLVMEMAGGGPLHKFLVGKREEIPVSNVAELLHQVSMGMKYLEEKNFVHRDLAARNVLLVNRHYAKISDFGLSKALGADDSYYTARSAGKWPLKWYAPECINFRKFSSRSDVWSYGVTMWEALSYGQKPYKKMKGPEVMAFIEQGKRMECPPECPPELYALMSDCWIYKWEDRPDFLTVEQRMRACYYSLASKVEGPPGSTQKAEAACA
The assay can be described thus: Kinase inhibition assay (33P transfer), Zap-70. The conditions noted are these: Table 3; read-out: Zap-1. The method, boiled down:
(§2)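 Kinase domain or full-length constructs, GST- or polyHis-tagged, expressed in E. coli or baculovirus-High Five cells, sometimes with regulatory polypeptides. Activity measured as 33PO4 transfer from ATP to plate-bound poly(Glu,Tyr) 4:1 or poly(Arg,Ser) 3:1; after incubation, plates washed with 0.5% phosphoric acid and counted by liquid scintillation.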

The target in assay [4] is T4, ErbB2 (Homo sapiens, UniProt P04626).
T4 construct: Kinases are expressed as either kinase domains or full length constructs; made in house
The assay can be described thus: Kinase inhibition assay (33P transfer), ErbB2. The following applies: read-out: ErbB2-2. The method, boiled down: as §1

Assay [5] concerns the target T5, Kdr (Homo sapiens, UniProt P35968).
T5 construct: Kinases are expressed as either kinase domains or full length constructs; made in house
The assay can be described thus: Kinase inhibition assay (33P transfer), Kdr. The conditions noted are these: Table 3; read-out: KDR-1. In a few lines: as §2

Assay [6] has as its target T6, AKT (Homo sapiens, UniProt Q9Y243).
T6 construct: Kinases are expressed as either kinase domains or full length constructs; made in house
The assay can be described thus: Kinase inhibition assay (33P transfer), AKT. The following applies: Table 2, kinase inhibition class; read-out: AKT3-1. In a few lines:
as §2

Assay [7] has as its target T7, EPHB4 (Homo sapiens, UniProt P54760).
T7 construct: Kinases are expressed as either kinase domains or full length constructs; made in house
T7 sequence (P54760 16-987): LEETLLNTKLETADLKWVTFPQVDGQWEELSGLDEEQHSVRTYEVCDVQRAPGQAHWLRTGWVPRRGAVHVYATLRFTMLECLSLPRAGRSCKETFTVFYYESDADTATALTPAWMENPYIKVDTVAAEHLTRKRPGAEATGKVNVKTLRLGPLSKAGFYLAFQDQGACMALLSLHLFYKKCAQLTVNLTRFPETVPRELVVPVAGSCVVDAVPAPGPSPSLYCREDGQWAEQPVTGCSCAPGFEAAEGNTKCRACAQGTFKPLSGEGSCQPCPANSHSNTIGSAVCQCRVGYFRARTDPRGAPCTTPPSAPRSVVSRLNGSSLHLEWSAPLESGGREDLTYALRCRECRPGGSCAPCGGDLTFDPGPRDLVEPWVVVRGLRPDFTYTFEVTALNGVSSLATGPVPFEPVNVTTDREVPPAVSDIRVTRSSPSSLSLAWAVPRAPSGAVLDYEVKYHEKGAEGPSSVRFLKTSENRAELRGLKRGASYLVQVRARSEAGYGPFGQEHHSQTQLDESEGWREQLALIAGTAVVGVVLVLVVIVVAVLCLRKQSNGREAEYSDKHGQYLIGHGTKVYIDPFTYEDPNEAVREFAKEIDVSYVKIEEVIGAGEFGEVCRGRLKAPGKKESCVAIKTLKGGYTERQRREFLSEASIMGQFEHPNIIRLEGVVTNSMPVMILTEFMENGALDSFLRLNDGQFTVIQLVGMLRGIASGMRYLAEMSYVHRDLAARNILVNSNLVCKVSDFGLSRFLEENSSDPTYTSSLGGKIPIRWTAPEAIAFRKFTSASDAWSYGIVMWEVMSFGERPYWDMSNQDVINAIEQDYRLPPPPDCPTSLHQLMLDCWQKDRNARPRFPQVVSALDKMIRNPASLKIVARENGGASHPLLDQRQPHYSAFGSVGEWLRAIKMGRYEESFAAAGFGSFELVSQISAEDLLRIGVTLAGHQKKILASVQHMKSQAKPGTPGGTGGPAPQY
The assay can be described thus: Kinase inhibition assay (33P transfer), EPHB4. The conditions noted are these: read-out: EPHB4-1.

Assay [8] has as its target T8, Ret-1 (Homo sapiens, UniProt P07949).
T8 construct: Kinases are expressed as either kinase domains or full length constructs; made in house
The assay can be described thus: Kinase inhibition assay (33P transfer), Ret. The conditions noted are these: Table 6, Ret-1 kinase inhibition class.

Where only a bound is given, the exact number is not on record here.

T2 sequence (P12931 whole entry, species assumed, the tested form may be a part): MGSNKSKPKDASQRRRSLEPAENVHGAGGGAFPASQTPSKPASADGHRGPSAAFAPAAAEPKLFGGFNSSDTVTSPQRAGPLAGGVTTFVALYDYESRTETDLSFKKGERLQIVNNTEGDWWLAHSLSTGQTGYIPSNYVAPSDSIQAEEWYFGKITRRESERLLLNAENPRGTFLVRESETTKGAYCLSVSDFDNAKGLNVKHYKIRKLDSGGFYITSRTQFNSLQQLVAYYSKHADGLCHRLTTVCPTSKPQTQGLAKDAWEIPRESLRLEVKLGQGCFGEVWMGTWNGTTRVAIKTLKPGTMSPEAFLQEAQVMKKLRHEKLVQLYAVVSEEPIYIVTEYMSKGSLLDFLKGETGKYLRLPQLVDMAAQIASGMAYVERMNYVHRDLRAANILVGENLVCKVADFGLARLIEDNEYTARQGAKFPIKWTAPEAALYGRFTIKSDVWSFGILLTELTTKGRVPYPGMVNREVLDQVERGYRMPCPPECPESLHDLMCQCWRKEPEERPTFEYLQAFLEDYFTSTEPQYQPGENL
T5 sequence (P35968 20-1356, species assumed): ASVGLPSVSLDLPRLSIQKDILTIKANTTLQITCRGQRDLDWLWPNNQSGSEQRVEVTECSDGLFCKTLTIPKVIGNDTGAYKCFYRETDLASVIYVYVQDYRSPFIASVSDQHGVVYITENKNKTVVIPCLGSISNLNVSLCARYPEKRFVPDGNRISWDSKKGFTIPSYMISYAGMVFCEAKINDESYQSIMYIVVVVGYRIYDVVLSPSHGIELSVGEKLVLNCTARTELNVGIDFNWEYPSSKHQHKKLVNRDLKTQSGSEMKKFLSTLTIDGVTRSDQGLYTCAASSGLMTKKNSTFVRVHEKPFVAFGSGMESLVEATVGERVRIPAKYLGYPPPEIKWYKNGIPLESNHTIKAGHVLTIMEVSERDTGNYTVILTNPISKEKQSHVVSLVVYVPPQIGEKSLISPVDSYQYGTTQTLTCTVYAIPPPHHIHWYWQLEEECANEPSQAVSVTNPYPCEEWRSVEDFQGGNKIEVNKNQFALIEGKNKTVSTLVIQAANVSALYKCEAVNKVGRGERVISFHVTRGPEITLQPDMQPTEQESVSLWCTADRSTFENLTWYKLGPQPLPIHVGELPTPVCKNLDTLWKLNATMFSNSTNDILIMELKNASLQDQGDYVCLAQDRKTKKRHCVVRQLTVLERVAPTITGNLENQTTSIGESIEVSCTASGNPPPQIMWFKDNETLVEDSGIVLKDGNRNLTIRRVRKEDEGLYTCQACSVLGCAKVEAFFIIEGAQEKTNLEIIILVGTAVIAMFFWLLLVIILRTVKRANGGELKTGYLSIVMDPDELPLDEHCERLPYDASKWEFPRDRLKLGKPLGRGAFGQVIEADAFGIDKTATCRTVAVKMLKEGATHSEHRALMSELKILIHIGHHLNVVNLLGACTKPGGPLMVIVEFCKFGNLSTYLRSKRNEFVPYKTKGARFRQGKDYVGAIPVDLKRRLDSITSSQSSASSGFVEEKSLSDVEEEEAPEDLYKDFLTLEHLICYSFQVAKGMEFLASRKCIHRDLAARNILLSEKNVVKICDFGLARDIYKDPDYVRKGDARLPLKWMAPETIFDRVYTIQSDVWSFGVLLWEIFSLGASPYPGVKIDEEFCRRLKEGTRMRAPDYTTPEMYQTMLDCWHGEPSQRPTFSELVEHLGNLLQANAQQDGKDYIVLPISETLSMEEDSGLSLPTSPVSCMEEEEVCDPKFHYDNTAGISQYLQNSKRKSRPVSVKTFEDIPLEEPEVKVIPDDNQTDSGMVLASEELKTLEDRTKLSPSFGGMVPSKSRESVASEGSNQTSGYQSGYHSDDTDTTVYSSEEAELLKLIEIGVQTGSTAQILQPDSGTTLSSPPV
T4 sequence (P04626 23-1255, species assumed): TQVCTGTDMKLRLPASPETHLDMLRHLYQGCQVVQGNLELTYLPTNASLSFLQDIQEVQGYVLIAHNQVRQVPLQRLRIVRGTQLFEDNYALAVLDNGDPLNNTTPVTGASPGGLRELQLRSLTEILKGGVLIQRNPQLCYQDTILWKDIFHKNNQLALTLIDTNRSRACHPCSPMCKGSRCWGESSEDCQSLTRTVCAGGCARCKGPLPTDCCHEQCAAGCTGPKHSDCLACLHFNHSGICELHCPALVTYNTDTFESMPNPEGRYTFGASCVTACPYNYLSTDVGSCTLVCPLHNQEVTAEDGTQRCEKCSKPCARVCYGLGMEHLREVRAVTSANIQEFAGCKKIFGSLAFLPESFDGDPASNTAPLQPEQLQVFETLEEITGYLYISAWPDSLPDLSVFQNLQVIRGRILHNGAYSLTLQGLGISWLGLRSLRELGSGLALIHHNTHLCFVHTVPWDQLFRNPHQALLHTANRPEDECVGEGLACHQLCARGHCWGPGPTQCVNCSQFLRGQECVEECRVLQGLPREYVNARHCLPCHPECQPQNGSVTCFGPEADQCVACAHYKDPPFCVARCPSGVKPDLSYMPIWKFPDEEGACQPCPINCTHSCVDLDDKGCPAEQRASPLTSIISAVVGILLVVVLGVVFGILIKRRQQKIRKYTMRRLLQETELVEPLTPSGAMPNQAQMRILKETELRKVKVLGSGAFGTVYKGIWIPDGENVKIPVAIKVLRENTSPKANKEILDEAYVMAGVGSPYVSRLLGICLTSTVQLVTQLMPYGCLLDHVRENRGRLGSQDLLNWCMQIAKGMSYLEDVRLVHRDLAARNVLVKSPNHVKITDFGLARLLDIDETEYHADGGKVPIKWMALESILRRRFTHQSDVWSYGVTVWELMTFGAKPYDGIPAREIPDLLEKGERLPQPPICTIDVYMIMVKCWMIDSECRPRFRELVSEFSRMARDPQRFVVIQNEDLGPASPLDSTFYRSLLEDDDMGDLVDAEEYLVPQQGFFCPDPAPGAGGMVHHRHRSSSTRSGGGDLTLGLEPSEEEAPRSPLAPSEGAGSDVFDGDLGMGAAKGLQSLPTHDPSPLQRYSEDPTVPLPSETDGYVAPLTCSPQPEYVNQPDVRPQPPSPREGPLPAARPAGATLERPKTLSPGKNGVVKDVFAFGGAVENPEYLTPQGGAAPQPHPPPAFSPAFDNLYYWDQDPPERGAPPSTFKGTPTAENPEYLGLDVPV
T6 sequence (Q9Y243 whole entry, the tested form may be a part): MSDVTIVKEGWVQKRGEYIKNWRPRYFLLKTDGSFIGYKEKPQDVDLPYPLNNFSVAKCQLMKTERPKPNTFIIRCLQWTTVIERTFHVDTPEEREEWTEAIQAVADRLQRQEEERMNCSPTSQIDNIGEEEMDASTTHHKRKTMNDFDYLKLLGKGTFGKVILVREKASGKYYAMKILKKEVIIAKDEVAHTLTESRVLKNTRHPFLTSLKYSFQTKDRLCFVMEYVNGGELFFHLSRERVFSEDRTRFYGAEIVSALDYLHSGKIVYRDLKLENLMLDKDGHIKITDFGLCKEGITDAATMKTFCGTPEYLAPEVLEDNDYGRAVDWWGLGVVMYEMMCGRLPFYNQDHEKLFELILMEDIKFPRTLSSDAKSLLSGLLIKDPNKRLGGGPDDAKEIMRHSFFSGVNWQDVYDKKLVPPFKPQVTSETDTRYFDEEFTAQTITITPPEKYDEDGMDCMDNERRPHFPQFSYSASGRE
T8 sequence (P07949 29-1114): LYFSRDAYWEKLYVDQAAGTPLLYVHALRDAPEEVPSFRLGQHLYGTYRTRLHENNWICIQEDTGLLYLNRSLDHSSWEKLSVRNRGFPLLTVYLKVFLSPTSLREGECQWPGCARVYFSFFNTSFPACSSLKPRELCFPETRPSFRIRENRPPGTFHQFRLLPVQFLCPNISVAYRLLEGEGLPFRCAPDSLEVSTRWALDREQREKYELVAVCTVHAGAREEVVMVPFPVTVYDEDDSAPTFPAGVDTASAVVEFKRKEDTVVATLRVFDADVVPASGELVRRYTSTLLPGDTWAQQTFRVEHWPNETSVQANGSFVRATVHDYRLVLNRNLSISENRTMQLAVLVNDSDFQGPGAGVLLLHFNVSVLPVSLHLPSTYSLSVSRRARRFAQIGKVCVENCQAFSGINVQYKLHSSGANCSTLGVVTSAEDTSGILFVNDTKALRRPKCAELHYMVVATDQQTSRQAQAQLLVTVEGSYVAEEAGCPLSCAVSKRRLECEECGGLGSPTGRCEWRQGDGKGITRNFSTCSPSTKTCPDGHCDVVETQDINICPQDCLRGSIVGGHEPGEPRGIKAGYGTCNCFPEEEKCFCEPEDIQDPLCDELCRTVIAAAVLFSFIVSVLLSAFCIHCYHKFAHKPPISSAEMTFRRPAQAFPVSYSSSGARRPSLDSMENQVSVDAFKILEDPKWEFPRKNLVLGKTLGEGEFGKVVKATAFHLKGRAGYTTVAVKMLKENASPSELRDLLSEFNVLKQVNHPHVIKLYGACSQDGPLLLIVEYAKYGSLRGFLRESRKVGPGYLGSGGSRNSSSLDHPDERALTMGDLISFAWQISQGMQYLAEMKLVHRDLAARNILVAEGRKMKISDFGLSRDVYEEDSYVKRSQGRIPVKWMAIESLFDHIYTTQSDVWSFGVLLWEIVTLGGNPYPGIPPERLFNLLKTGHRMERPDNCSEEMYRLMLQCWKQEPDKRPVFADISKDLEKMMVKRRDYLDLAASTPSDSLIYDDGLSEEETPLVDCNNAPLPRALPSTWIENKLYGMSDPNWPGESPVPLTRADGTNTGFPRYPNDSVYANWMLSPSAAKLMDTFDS

With `COc1cc(Nc2ncnc(-n3c(N)nc4ccccc43)n2)cc(OC)c1OC` [Compound 289], the IC50 was 6.1 to 8.9 µM in assay [1]; 1.02 to 6.1 µM in assay [2]; greater than 11.4 µM in assay [3]; greater than 11.4 µM in assay [4]; less than 1.02 µM in assay [5]; greater than 11.4 µM in assay [6]. Also, the IC50 in assay [7] and in assay [8] was 1.02 to 6.1 µM throughout.

For the compound `COc1cc(Nc2ncnc(Nc3cc(OC)c(OC)c(OC)c3)n2)cc(OC)c1` [Compound 86], the IC50 was greater than 10.9 µM in assay [1]; 0.968 to 5.81 µM in assay [2]; greater than 10.9 µM in assay [3]; 0.968 to 5.81 µM in assay [4]; less than 0.968 µM in assay [5]; greater than 10.9 µM in assay [6]. The IC50 was greater than 10.9 µM in assay [7] and 0.968 to 5.81 µM in assay [8].

In the case of `COc1cc(Nc2ncnc(Nc3ccc4ccccc4c3)n2)cc(OC)c1OC` [Compound 96], the IC50 is 0.991 to 5.95 µM in assay [1]; 5.95 to 8.68 µM in assay [2]; 8.68 to 11.2 µM in assay [3]; less than 0.991 µM in assay [4]; 0.991 to 5.95 µM in assay [5]; greater than 11.2 µM in assay [6]. Also, the IC50 in assay [7] was greater than 11.2 µM; in assay [8], 5.95 to 8.68 µM.

As to `COc1cc(Nc2ncnc(NC(=O)Nc3ccccc3)n2)cc(OC)c1OC` [Compound 852], the IC50 in assay [1] was greater than 11.4 µM; in assay [2], greater than 11.4 µM; in assay [3] it was 8.83 to 11.4 µM; in assay [4], 6.05 to 8.83 µM; in assay [5], 6.05 to 8.83 µM; in assay [6], greater than 11.4 µM. Also, the IC50 in assay [7] was greater than 11.4 µM; in assay [8], 6.05 to 8.83 µM.

Turning to `COc1cc(Nc2ncnc(Nc3ccccc3)n2)cc(OC)c1OC` [Compound 91], the IC50 in assay [1] is 1.13 to 6.79 µM; in assay [2], 1.13 to 6.79 µM; in assay [3], greater than 12.7 µM; in assay [4] it was 1.13 to 6.79 µM; in assay [5] it was 1.13 to 6.79 µM; in assay [6] it was greater than 12.7 µM. The IC50 in assay [7] lay within 6.79 to 9.9 µM; in assay [8], 1.13 to 6.79 µM.

`COc1cc(Nc2ncnc(Nc3cccc(C)c3)n2)cc(OC)c1OC` [Compound 64]: the IC50 was less than 1.09 µM in assay [1]; less than 1.09 µM in assay [2]; 9.53 to 12.2 µM in assay [3]; 1.09 to 6.53 µM in assay [4]; 1.09 to 6.53 µM in assay [5]; greater than 12.2 µM in assay [6]. In addition, the results for the IC50 in assay [7] and in assay [8] were 1.09 to 6.53 µM and greater than 12.2 µM, respectively.
